We go through 34 compounds from patent publication US5436254A, “Carbostyril derivatives” (Otsuka Pharmaceutical Company, Ltd., priority 1989, dated 1995).

pIC50: −log10 of the molar value.

For one assay, the target named is V1 receptor (Rattus norvegicus, UniProt P30560). In words: biochemical. The assay is classed as binding.
Chain of V1 receptor (P30560 whole entry): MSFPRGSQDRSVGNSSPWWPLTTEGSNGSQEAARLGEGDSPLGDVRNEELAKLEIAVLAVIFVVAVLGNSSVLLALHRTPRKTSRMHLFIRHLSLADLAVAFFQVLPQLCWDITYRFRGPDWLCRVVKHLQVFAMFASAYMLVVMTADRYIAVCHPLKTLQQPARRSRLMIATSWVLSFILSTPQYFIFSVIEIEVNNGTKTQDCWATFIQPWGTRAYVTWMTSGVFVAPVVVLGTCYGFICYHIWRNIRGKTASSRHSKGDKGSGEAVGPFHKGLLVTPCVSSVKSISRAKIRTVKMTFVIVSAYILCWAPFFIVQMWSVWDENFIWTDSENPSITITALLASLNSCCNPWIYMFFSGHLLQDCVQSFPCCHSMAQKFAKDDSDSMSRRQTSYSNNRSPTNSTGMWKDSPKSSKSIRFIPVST
Conditions: not given
As to `CCN(CC)CC(O)COCCCOc1ccc(C(=O)N2CCC(N3C(=O)CCc4ccccc43)CC2)cc1` (stereo not shown) [Example 192, 1-{1-[4-(3-(2-Hydroxy-3-diethylaminopropoxy)propoxy)benzoyl]-4-piperidinyl}-3,4-dihydrocarbostyril], the pIC50 was 7.21. With `Nc1ccc(C(=O)NCCCOc2ccc(C(=O)N3CCC(N4C(=O)CCc5ccccc54)CC3)cc2)cc1` [Example 193, 1-{1-[4-(3-(4-Aminobenzoylamino)propoxy)benzoyl]-4-piperidinyl}-3,4-dihydrocarbostyril], the pIC50 is 6.92. `O=C(c1ccc(OCCCC[S+]([O-])c2nc3ccccc3[nH]2)cc1)N1CCC(N2C(=O)CCc3ccccc32)CC1` (stereo not shown) [Example 194, 1-{1-[4-(4-(Benzimidazol-2-yl)sulfinylbutoxy)benzoyl]-4-piperidinyl}-3,4-dihydrocarbostyril] showed a pIC50 of 6.46. Consider `CC(=O)N[C@@H](CCC(N)=O)C(=O)NCCCOc1ccc(C(=O)N2CCC(N3C(=O)CCc4ccccc43)CC2)cc1` [Example 195, 1-(1-[4-(3-(α-N-Acetyl-(L)-glutaminyl)aminopropoxy)benzoyl]-4-piperidinyl}-3,4-dihydrocarbostyril], for which the pIC50 is 6.72.

`CC(=O)Nc1ccc(C(=O)NCCCOc2ccc(C(=O)N3CCC(N4C(=O)CCc5ccccc54)CC3)cc2)cc1` [Example 196, 1-(1-[4-(3-(4-Acetylaminobenzoyl)aminopropoxy)benzoyl]-4-piperidinyl}-3,4-dihydrocarbostyril]: the pIC50 was 6.77.

Consider `CN(C)CCCNC(=O)CCCCCOc1ccc(C(=O)N2CCC(N3C(=O)CCc4ccccc43)CC2)cc1` [Example 197, 1-(1-[4-(5-(3-Dimethylaminopropyl)aminocarbonylpentyloxy)benzoyl]-4-piperidinyl}-3,4-dihydrocarbostyril], for which the pIC50 was 7.46.

In the case of `CCNC(=O)NCCCOc1ccc(C(=O)N2CCC(N3C(=O)CCc4ccccc43)CC2)cc1` [Example 198, 1-{1-[4-(3-Ethylaminocarbonylaminopropoxy)benzoyl]-4-piperidinyl}-3,4-dihydrocarbostyril], the pIC50 was 6.49.

`CN(C)CCNC(=O)CCCCCOc1ccc(C(=O)N2CCC(N3C(=O)CCc4ccccc43)CC2)cc1` [Example 199, 1-[1-[4-(5-(2-Dimethylaminoethyl)aminocarbonylpentyloxy)benzoyl]-4-piperidinyl}-3,4-dihydrocarbostyril] showed a pIC50 of 7.26. Regarding `O=C(CCCCCOc1ccc(C(=O)N2CCC(N3C(=O)CCc4ccccc43)CC2)cc1)NC1CCN(Cc2ccccc2)CC1` [Example 200, 1-{1-[4-(5-(1-Benzyl-4-piperidinyl)aminocarbonylpentyloxy)benzoyl]-4-piperidinyl}-3,4-dihydrocarbostyril], the pIC50 was 7.47. In turn, `CCN(CC)CC(O)CCCCOc1ccc(C(=O)N2CCC(N3C(=O)CCc4c(F)cc(F)cc43)CC2)c(OC)c1` (stereo not shown) [Example 201, 5,7-Difluoro-1-(1-[2-methoxy-4-(5-hydroxy-6-diethylaminohexyloxy)benzoyl]-4-piperidinyl}-3,4-dihydrocarbostyril] showed a pIC50 of 8.10. Compound `O=C(c1ccc(OCCCCC(O)CN2CCCC2)cc1)N1CCC(N2C(=O)CCc3ccccc32)CC1` (stereo not shown) [Example 202, 1-{1-[4-(5-Hydroxy-6-(1-pyrrolidinyl)hexyloxy)benzoyl]-4-piperidinyl}-3,4-dihydrocarbostyril] showed a pIC50 of 7.57. In turn, `CN(CCc1ccccc1)CC(O)CCCCOc1ccc(C(=O)N2CCC(N3C(=O)CCc4ccccc43)CC2)cc1` (stereo not shown) [Example 203, 1-{1-[4-(5-Hydroxy-6-[N-(2-phenylethyl)-N-methylamino]hexyloxy)benzoyl]-4-piperidinyl)-3,4-dihydrocarbostyril] had a pIC50 of 7.31.

Compound `CN(CCO)CC(O)CCCCOc1ccc(C(=O)N2CCC(N3C(=O)CCc4ccccc43)CC2)cc1` (stereo not shown) [Example 204, 1-{1-[4-(5-Hydroxy-6-[N-(2-hydroxyethyl)-N-methylamino]hexyloxy)benzoyl]-4-piperidinyl}-3,4-dihydrocarbostyril] gave a pIC50 of 7.23. For `O=C(c1ccc(OCCCCC(O)CN2CCN(c3ccccc3)CC2)cc1)N1CCC(N2C(=O)CCc3ccccc32)CC1` (stereo not shown) [Example 205, 1-{1-[4-(5-Hydroxy-6-(4-phenyl-1-piperazinyl)hexyloxy)benzoyl]-4-piperidinyl}-3,4-dihydrocarbostyril], the pIC50 was 6.92.

The compound `O=C(c1ccc(OCCCCCCC(O)CN2CCCC2)cc1)N1CCC(N2C(=O)CCc3ccccc32)CC1` (stereo not shown) [Example 206, 1-(1-[4-(7-Hydroxy-8-(1-pyrrolidinyl)octyloxy)benzoyl]-4-piperidinyl)-3,4-dihydrocarbostyril] had a pIC50 of 7.52. As for `CSCCC(NC(C)=O)C(=O)NCCCOc1ccc(C(=O)N2CCC(N3C(=O)CCc4ccccc43)CC2)cc1` (stereo not shown) [Example 207, 1-(1-[4-(3-(2-Acetylamino-4-methylthiobutyrylamino)propoxy)benzoyl]-4-piperidinyl}-3,4-dihydrocarbostyril], the pIC50 was 7.15.

Regarding `CC(=O)N[C@H](Cc1c[nH]cn1)C(=O)NCCCOc1ccc(C(=O)N2CCC(N3C(=O)CCc4ccccc43)CC2)cc1` [Example 208, 1-{1-[4-(3-[2-(R)-Acetylamino-2-(4(1H)-imidazolyl)methylacetylamino]propoxy)benzoyl]-4-piperidinyl}-3,4-dihydrocarbostyril], the pIC50 was 7.00. Turning to `O=C(CCCCCOc1ccc(C(=O)N2CCC(N3C(=O)CCc4ccccc43)CC2)cc1)NC1CCNCC1` [Example 210, 1-{1-[4-(5-(4-Piperidinyl)aminocarbonylpentyloxy)benzoyl]-4-piperidinyl}-3,4-dihydrocarbostyril], the pIC50 is 7.64.

`NC(=O)OCCCCCCOc1ccc(C(=O)N2CCC(N3C(=O)CCc4ccccc43)CC2)cc1` [Example 212, 1-{1-[4-(6-Carbamoyloxyhexyloxy)benzoyl]-4-piperidinyl}-3,4-dihydrocarbostyril] gave a pIC50 of 6.80.

Consider `CCN(CC)CCCCCCOc1ccc(C(=O)N2CCC(N3C(=O)CCc4ccccc43)CC2)cc1` [Example 213, 1-{1-[4-(6-Diethylaminohexyloxy)benzoyl]-4-piperidinyl}-3,4-dihydrocarbostyril], for which the pIC50 is 7.23.

For `O=C(c1ccc(OCCCCCCN2CCCC2)cc1)N1CCC(N2C(=O)CCc3ccccc32)CC1` [Example 214, 1-{1-[4-(6-(1-Pyrrolidinyl)hexyloxy)benzoyl]-4-piperidinyl}-3,4-dihydrocarbostyril.], the pIC50 was 7.24.

Turning to `CCOc1ccc(C(=O)N2CCC(N3C(=O)CCc4c(C)cccc43)CC2)c(OC)c1` [Example 216, 5-Methyl-1-[1-(2-methoxy-4-ethoxybenzoyl)-4-piperidinyl]-3,4-dihydrocarbostyril], the pIC50 was 7.39.

For the compound `CC(C)NCC(O)CCCCOc1ccc(C(=O)N2CCC(N3C(=O)CCc4ccccc43)CC2)cc1` (stereo not shown) [Example 217, 1-{1-[4-(5-Hydroxy-6-isopropylaminohexyloxy)benzoyl]-4-piperidinyl}-3,4-dihydrocarbostyril], the pIC50 is 7.28. Regarding `CCN(CC(O)CCCCOc1ccc(C(=O)N2CCC(N3C(=O)CCc4ccccc43)CC2)cc1)CC1CCCCO1` (stereo not shown) [Example 218, 1-{1-[4-(5-Hydroxy-6-[N-ethyl-N-(2-tetrahydropyranylmethyl)amino]hexyloxy)benzoyl]-4-piperidinyl}-3,4-dihydrocarbostyril], the pIC50 was 7.36. In turn, `O=C(c1ccc(OCCCCC(O)CN2CCC[C@H]2CO)cc1)N1CCC(N2C(=O)CCc3ccccc32)CC1` (stereo partly shown) [Example 220] showed a pIC50 of 7.70. Take `O=C(NCCCC[C@H](NC(=O)OCc1ccccc1)C(=O)NCCCOc1ccc(C(=O)N2CCC(N3C(=O)CCc4ccccc43)CC2)cc1)OCc1ccccc1` [Example 222, 1-[1-{4-[3-(S)-{N,N'76434 -Di(benzyloxycarbonyl)lysyl)aminopropoxy]benzoyl}-4-piperidinyl]-3,4-dihydrocarbostyril]: the pIC50 is 6.19.

`N[C@@H](Cc1ccc(O)cc1)C(=O)NCCCOc1ccc(C(=O)N2CCC(N3C(=O)CCc4ccccc43)CC2)cc1` [Example 223, 1-[1-{4-[3-(S)-Tyrosylaminopropoxy]benzoyl}-4-piperidinyl]-3,4-dihydrocarbostyril]: the pIC50 was 7.14. The same measure, in the same setting: next, `O=C(NCCCOc1ccc(C(=O)N2CCC(N3C(=O)CCc4ccccc43)CC2)cc1)[C@@H]1CCCN1` [Example 224, 1-{1-[4-(3-(S)-Prolylaminopropoxy)benzoyl]-4-piperidinyl]-3,4-dihydrocarbostyril]: 7.03. In turn, `CC(C)[C@@H](N)C(=O)NCCCOc1ccc(C(=O)N2CCC(N3C(=O)CCc4ccccc43)CC2)cc1` [Example 225, 1-[1-{4-(3-(R)-Valylaminopropoxy]benzoyl]-4-piperidinyl]-3,4-dihydrocarbostyril] had a pIC50 of 7.00.

`O=C(N[C@@H](CO)C(=O)NCCCOc1ccc(C(=O)N2CCC(N3C(=O)CCc4ccccc43)CC2)cc1)OCc1ccccc1` [Example 226, 1-[1-{4-(3-(S)-{N-(Benzyloxycarbonyl)seryl}aminopropoxy]benzoyl)-4-piperidinyl]-3,4-dihydrocarbostyril] showed a pIC50 of 6.32.

Compound `C=CCN1CCN(CCCCOc2ccc(C(=O)N3CCC(N4C(=O)CCc5ccccc54)CC3)cc2)CC1` [Example 227, 1-{1-(4-[4-(4-Allyl-1-piperazinyl)butoxy]benzoyl)-4-piperidinyl)-3,4-dihydrocarbostyril] had a negative-log IC50 (pIC50) of 6.89. The compound `O=C(CCl)NCCCCOc1ccc(C(=O)N2CCC(N3C(=O)CCc4ccccc43)CC2)cc1` [Example 228, 1-{1-(4-[4-(2-Chloroacetylamino)butoxy]benzoyl)-4-piperidinyl)-3,4-dihydrocarbostyril] gave a pIC50 of 6.70.

Turning to `CC(=O)OCC(=O)NCCCCCOc1ccc(C(=O)N2CCC(N3C(=O)CCc4ccccc43)CC2)cc1` [Example 229, 1-{1-(4-[5-(2-Acetoxyacetylamino)pentyloxy]benzoyl)-4-piperidinyl]-3,4-dihydrocarbostyril], the pIC50 is 6.70.

Staying with this assay, now noted: [H]3-Arg-vasopressin 2×10^-10 M, rat liver plasma membrane, 37° C., 10 minutes, pH 8.0.
Consider `CN(CC(O)CCCCOc1ccc(C(=O)N2CCC(N3C(=O)CCc4ccccc43)CC2)cc1)CC(O)c1ccccc1` (stereo not shown) [Example 219, 1-{1-[4-(5-Hydroxy-6-[N-methyl-N-(2-hydroxy-4-phenylethyl)amino]hexyloxy)benzoyl]-4-piperidinyl}-3,4-dihydrocarbostyril], for which the pIC50 is 7.22.
